Target: T1, PAPD5 (Homo sapiens, UniProt Q8NDF8)
T1 construct: made in house
Test: High-throughput luminescence (KinaseGlo) RNA polyadenylation assay, ATP utilization by recombinant PAPD5
Assay type: biochemical
Details: Table 4 (entries of Table 5), ratio of luminescence with inhibitor to DMSO; for Fold-change determined at compound concentration 33 μM: 33 μM compound; for Fold-change determined at compound concentration 100 μM: 100 μM compound, higher = higher inhibition
Description: Optimal conditions for an in vitro RNA polyadenylation assay using recombinant PAPD5, ATP and an oligonucleotide substrate were identified. The HTS assay involved ATP utilization by PAPD5, which reads out as a decreased luminescence signal produced by luciferase (KinaseGlo, Promega, Madison, WI).
100 nl of compound dissolved in DMSO was transferred to each well of the assay plate via pin transfer. For negative control wells, DMSO alone was added. Plates were gently vortexed for 5 seconds, then incubated for 2 hours at room temperature.
After 2 hours, 5 ul of luciferase (Promega KinaseGlo, Madison, WI) was added using a MultiDrop Combi (Thermo Fisher Scientific, Waltham, MA). The mixture was gently vortexed for 5 seconds and incubated for 10 minutes at room temperature. Plates were spun for 1 minute prior to luminescence measurements. Luminescent measurements were quantitated using a PerkinElmer EnVision™ plate reader.
˜100,000 compounds from various libraries at the ICCB-Longwood were screened in this manner in duplicate.
The fold change was the ratio of luminescence from a sample with inhibitor compared to that with DMSO. Thus, a higher number indicates higher inhibition.

T1 sequence (Q8NDF8 68-698 isoform Q8NDF8-5): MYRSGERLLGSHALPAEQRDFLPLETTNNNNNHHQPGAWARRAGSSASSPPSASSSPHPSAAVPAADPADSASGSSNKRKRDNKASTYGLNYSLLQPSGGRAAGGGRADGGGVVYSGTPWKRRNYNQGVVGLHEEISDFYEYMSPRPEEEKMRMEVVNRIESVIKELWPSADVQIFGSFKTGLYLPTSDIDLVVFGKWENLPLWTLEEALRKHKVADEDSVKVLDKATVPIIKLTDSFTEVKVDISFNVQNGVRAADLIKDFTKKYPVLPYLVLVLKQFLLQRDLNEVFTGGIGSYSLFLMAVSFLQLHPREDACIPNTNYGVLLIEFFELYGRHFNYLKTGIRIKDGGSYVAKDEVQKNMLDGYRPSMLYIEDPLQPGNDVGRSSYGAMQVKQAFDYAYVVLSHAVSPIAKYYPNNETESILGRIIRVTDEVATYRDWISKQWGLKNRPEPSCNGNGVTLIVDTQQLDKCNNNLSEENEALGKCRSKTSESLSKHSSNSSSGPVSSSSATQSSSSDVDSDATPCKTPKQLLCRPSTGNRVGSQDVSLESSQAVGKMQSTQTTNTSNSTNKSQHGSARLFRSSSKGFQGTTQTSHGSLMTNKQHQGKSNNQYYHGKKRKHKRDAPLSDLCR

Row | SMILES | Fold-change determined at compound concentration 33 μM | Fold-change determined at compound concentration 100 μM | Fold-change determined at compound concentration 10 μM (10 μM compound)
1 | COc1c2[nH]c3occc3c(OC)c-2ccc1=O [Entry 91, 4,8-dimethoxy-9H-furo[2,3-b]quinolin-7-one] | 1.197 | 1.537 | –
2 | COc1c2ccoc2nc2c(OC)cccc12 [Entry 92, 4,8-dimethoxyfuro[2,3-b]quinoline] | 1.175 | 1.478 | –
3 | Cc1ccc2cc(-c3noc(CCC(=O)Nc4nccs4)n3)c(O)nc2c1 [Entry 94, 3-[3-(2-hydroxy-7-methylquinolin-3-yl)-1,2,4-oxadiazol-5-yl]-N-1,3-thiazol-2-ylpropanamide] | 1.294 | 1.926 | –
4 | Cc1ccc(NC(=O)c2ccc3c(O)c(S(=O)(=O)c4ccc(Cl)cc4)c(=O)[nH]c3c2)cc1 [Entry 95, 3-(4-chlorophenyl)sulfonyl-4-hydroxy-N-(4-methylphenyl)-2-oxo-1H-quinoline-7-carboxamide] | 1.156 | 1.228 | –
5 | Cc1ccc(C)c(NC(=O)c2ccc3c(O)c(S(=O)(=O)c4ccc(Cl)cc4)c(O)nc3c2)c1 [Entry 96, (Z)-3-((4-chlorophenyl)sulfonyl)-N-(2,5-dimethylphenyl)-2,4-dihydroxyquinoline-7-carbimidic acid] | 1.184 | 1.23 | –
6 | O=C(O)C1Nc2ccc(Cl)cc2C2C=CCC12 (stereo not drawn) [Entry 98, 8-Chloro-3a,4,5,9b-tetrahydro-3H-cyclopenta[c]quinoline-4-carboxylic acid] | 1.97 | 2.765 | –
7 | COc1ccc(Br)cc1[C@@H]1Nc2ccc(C(=O)O)cc2[C@@H]2C=CC[C@@H]21 [Entry 99, (3aS,4R,9bR)-4-(5-bromo-2-methoxyphenyl)-3a,4,5,9b-tetrahydro-3H-cyclopenta[c]quinoline-8-carboxylic acid] | 1.233 | 1.91 | –
8 | COc1ccc(NS(=O)(=O)c2ccc3c(c2)[C@H]2C=CC[C@H]2[C@@H](c2ccc(C(=O)O)cc2)N3)cc1 [Entry 100, 4-[(3aR,4S,9bS)-8-[(4-methoxyphenyl)sulfamoyl]-3a,4,5,9b-tetrahydro-3H-cyclopenta[c]quinolin-4-yl]benzoic acid] | 1.315 | 2.297 | –
9 | CCOc1cccc2c1N[C@@H](c1ccc(C(=O)O)cc1)[C@H]1CC=C[C@@H]21 [Entry 101, 4-[(3aS,4R,9bR)-6-ethoxy-3a,4,5,9b-tetrahydro-3H-cyclopenta[c]quinolin-4-yl]benzoic acid] | 1.265 | 2.042 | –
10 | CCn1cc(C(=O)O)c(=O)c2cc(F)c(N3CCN(C)CC3)cc21 [Entry 103, 1-ethyl-6-fluoro-7-(4-methylpiperazin-1-yl)-4-oxo-1,4-dihydroquinoline-3-carboxylic acid] | 1.04 | 1.218 | –
11 | O=c1c(S(=O)(=O)c2cccc(F)c2)c[nH]c2c(F)c(Cl)ccc12 [Entry 104, 7-chloro-8-fluoro-3-(3-fluorophenyl)sulfonyl-1H-quinolin-4-one] | 1.048 | 1.235 | –
12 | O=c1c(S(=O)(=O)c2cccc(F)c2)c[nH]c2c(F)ccc(Cl)c12 [Entry 105, 5-chloro-8-fluoro-3-(3-fluorophenyl)sulfonyl-1H-quinolin-4-one] | 1.16 | 1.333 | –
13 | CN(C)S(=O)(=O)c1ccc2c(c1)c(C(=O)n1ccnc1)cn2C [Entry 108, 3-(I-Imidazole-1-carbonyl)-N,N,1-trimethylindole-5-sulfonamide] | 1.256 | 1.547 | –
14 | COc1ccc(OC)c(NC(=O)Cc2c(C(=O)O)[nH]c3ccc(Cl)cc23)c1 [Entry 109, 5-chloro-3-[2-(2,5-dimethoxyanilino)-2-oxoethyl]-1H-indole-2-carboxylic acid] | 1.076 | 1.231 | –
15 | CC1=NCCc2c1[nH]c1ccccc21 [Entry 113, 1-Methyl-4,9-dihydro-3H-beta-carboline] | 1.202 | 1.674 | –
16 | COc1ccc2c(c1)[nH]c1c(C)nccc12 [Entry 114, 7-Methoxy-1-methyl-9H-pyrido[3,4-b]indole] | 1.1 | 1.342 | –
17 | O=c1oc2cc(O)c(O)cc2c2c1CCCC2 [Entry 118, 2,3-dihydroxy-7,8,9,10-tetrahydro-6H-benzo[c]-chromen-6-one] | 1.195 | 1.615 | –
18 | CCn1cnc2c(=O)oc3ccc(S(=O)(=O)Nc4ccc(OC)cc4)cc3c21 [Entry 119, 1-ethyl-N-(4-methoxyphenyl)-4-oxochromeno[3,4-d]imidazole-8-sulfonamide] | 1.319 | 1.366 | –
19 | Cc1nnc(NC(=O)c2cc(=O)c3cc(F)ccc3o2)s1 [Entry 120, 6-fluoro-N-(5-methyl-1,3,4-thiadiazol-2-yl)-4-oxo-4H-chromene-2-carboxamide] | 1.1 | 1.381 | –
20 | CC(C)c1nnc(NC(=O)c2cc(=O)c3ccc(Br)cc3o2)s1 [Entry 121, 7-bromo-4-oxo-N-(5-propan-2-yl-1,3,4-thiadiazol-2-yl)chromene-2-carboxamide] | 1.118 | 1.26 | –
21 | Cc1cc2oc(C(=O)Nc3nnc(C(C)C)s3)cc(=O)c2cc1C [Entry 122, 6,7-dimethyl-4-oxo-N-(5-propan-2-yl-1,3,4-thiadiazol-2-yl)chromene-2-carboxamide] | 1.134 | 1.377 | –

The remaining lines, values ahead:

Row | Fold-change determined at compound concentration 33 μM | Fold-change determined at compound concentration 100 μM | Fold-change determined at compound concentration 10 μM (10 μM compound) | SMILES
22 | 1.171 | 1.403 | – | O=C(CSc1nc(=O)c2ccccc2[nH]1)NCc1nc2ccccc2[nH]1 [Entry 97, N-(1H-benzimidazol-2-ylmethyl)-2-[(4-oxo-1H-quinazolin-2-yl)sulfanyl]acetamide]
23 | 1.066 | 1.268 | – | Cc1cc(C)c2c(=O)cc(CSc3nnc(-c4ccccc4)n3C)[nH]c2c1 [Entry 102, 5,7-dimethyl-2-[(4-methyl-5-phenyl-1,2,4-triazol-3-yl)sulfanylmethyl]-1H-quinolin-4-one]
24 | 1.218 | 1.522 | – | Cc1cc(C)c2c(=O)cc(CSc3nnc(-c4cccc(F)c4)n3C)[nH]c2c1 [Entry 106, 2-[[5-(3-fluorophenyl)-4-methyl-1,2,4-triazol-3-yl]sulfanylmethyl]-5,7-dimethyl-1H-quinolin-4-one]
25 | 1.319 | 1.883 | – | Cc1ccc2c(=O)cc(CSc3ncn[nH]3)[nH]c2c1C [Entry 107, 7,8-dimethyl-2-(1H-1,2,4-triazol-5-ylsulfanylmethyl)-1H-quinolin-4-one]
26 | 1.126 | 1.298 | – | CCc1ccccc1NC(=O)Cc1c(C(=O)O)[nH]c2ccc(Cl)cc12 [Entry 110, 5-chloro-3-[2-(2-ethylanilino)-2-oxoethyl]-1H-indole-2-carboxylic acid]
27 | 1.78 | 2.308 | – | Cc1nc[nH]c1CN1CCc2c(c3ccccc3n2C)C1=O [Entry 111, 5-methyl-2-((4-methyl-1H-imidazol-5-yl)methyl)-2,3,4,5-tetrahydro-1H-pyrido[4,3-b]indol-1-one]
28 | 1.316 | 1.777 | – | Cc1cc(C)c2c(=O)cc(C(=O)Nc3ccc(S(=O)(=O)Nc4onc(C)c4C)cc3)oc2c1 [Entry 115, N-[4-[(3,4-dimethyl-1,2-oxazol-5-yl)sulfamoyl]phenyl]-5,7-dimethyl-4-oxochromene-2-carboxamide]
29 | 1.459 | 2.138 | – | Cc1ccc2c(=O)cc(C(=O)Nc3nnc(C)s3)oc2c1 [Entry 116, 7-methyl-N-(5-methyl-1,3,4-thiadiazol-2-yl)-4-oxo-4H-chromene-2-carboxamide]
30 | 1.177 | 1.444 | – | Cc1cccc2c(=O)cc(C(=O)Nc3nnc(C(C)C)s3)oc12 [Entry 117, 8-methyl-4-oxo-N-(5-propan-2-yl-1,3,4-thiadiazol-2-yl)chromene-2-carboxamide]
31 | 1.528 | 2.189 | 1.211 | CCc1nnc(NC(=O)c2cc(=O)c3cc(C)c(C)cc3o2)s1 [Entry 123, N-(5-ethyl-1,3,4-thiadiazol-2-yl)-6,7-dimethyl-4-oxo-4H-chromene-2-carboxamide]

— patent US12171755B2, “PAPD5 inhibitors and methods of use thereof” (Children's Medical Center Corporation, priority 2017, dated 2024)
